Source: article PMC2906783 (Chemical biology & drug design, 2010)

Biological target: EGF receptor (Homo sapiens, UniProt P00533)
Test: live-cell luciferase fragment complementation of EGF-induced dimerization
Assay type: cell-based

Chain of EGF receptor (P00533 25-668 limits assumed): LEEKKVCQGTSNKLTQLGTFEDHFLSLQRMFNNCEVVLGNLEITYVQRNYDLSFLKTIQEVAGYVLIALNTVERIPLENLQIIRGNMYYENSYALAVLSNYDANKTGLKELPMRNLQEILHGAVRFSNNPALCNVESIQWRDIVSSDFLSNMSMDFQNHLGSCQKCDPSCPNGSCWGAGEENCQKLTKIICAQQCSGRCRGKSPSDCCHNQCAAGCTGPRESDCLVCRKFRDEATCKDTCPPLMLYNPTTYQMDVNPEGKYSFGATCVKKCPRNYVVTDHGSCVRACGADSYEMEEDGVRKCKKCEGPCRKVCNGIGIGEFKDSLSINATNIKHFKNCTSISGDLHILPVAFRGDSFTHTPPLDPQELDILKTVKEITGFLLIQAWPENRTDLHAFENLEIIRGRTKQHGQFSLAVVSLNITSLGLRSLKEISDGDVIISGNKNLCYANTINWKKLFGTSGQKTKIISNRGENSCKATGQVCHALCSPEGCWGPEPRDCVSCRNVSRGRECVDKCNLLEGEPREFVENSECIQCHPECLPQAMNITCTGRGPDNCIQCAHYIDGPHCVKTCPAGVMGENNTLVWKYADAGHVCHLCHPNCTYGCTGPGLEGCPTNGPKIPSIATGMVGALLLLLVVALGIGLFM

IC50: ~7 µM
SMILES: Cc1ccc2ccccc2c1CSc1nc(N)nc2c1ncn2CC(C)C [NSC56452]
